Columns and labels:
[1] = Half life in human liver microsomes measured upto 45 mins in presence of NADPH by LC-MS analysis; assay type: ADME, Microsome
[2] = target: Activin receptor type-1-like (Homo sapiens, UniProt P37023); experiment: Inhibition of human recombinant ALK1 (142 to end residues) using casein as substrate incubated for 40 mins in presence of [gamma-33P]ATP by radiometric scintillation counting analysis
[3] = target: Tyrosine-protein kinase ABL2 (Homo sapiens, UniProt P42684); experiment: Inhibition of human recombinant ARG (48 to end residues) using EAIYAAPFAKKK as substrate incubated for 40 mins in presence of [gamma-33ATP] by radiometric scintillation counting analysis
[4] = target: Protein-tyrosine kinase 6 (Homo sapiens, UniProt Q13882); experiment: Inhibition of recombinant full length human BRK using poly(Glu, Tyr) 4:1 as substrate incubated for 40 mins in presence of [gamma-33ATP] by radiometric scintillation counting analysis
[5] = target: Calcium/calmodulin-dependent protein kinase kinase 2 (Homo sapiens, UniProt Q96RR4, T85S); experiment: Inhibition of recombinant full length human CaMKK2 T85S mutant using calmodulin as substrate incubated for 40 mins in presence of [gamma-33ATP] by radiometric scintillation counting analysis
[6] = target: Serine/threonine-protein kinase Chk2 (Homo sapiens, UniProt O96017, I157T); experiment: Inhibition of recombinant human CHK2 I157T mutant (5 to end residues) using KKKVSRSGLYRSP as substrate incubated for 40 mins in presence of [gamma-33ATP] by radiometric scintillation counting analysis
[7] = target: Serine/threonine-protein kinase DCLK3 (Homo sapiens, UniProt Q9C098); experiment: Inhibition of recombinant human DCAMKL3 (345 to end residues) using KKLNRTLSFAEPG as substrate after 40 mins in presence of [gamma-33ATP] by radiometric scintillation counting analysis
[8] = target: Dual specificity tyrosine-phosphorylation-regulated kinase 3 (Homo sapiens, UniProt O43781); experiment: Inhibition of recombinant full length human DYRK3 using RRRFRPASPLRGPP as substrate after 40 mins in presence of [gamma-33ATP] by radiometric scintillation counting analysis
[9] = target: Protein kinase C epsilon type (Homo sapiens, UniProt Q02156); experiment: Inhibition of recombinant human PKCepsilon (2 to end residues) using ERMRPRKRQGSVRR as substrate incubated for 40 mins in presence of [gamma33P]ATP by radiometric scintillation counting analysis
[10] = target: RAC-gamma serine/threonine-protein kinase (Homo sapiens, UniProt Q9Y243, S472D); experiment: Inhibition of recombinant human PKBgamma S472D mutant (117 to end residues) using GRPRTSSFAEGKK as substrate incubated for 40 mins in presence of [gamma33P]ATP by radiometric scintillation counting analysis
[11] = target: Mitogen-activated protein kinase kinase kinase 9 (Homo sapiens, UniProt P80192); experiment: Inhibition of recombinant human MLK1 (134 to 414 residues) using casein as substrate incubated for 40 mins in presence of [gamma-33ATP by radiometric scintillation counting analysis
[12] = target: Mitogen-activated protein kinase kinase kinase 10 (Homo sapiens, UniProt Q02779); experiment: Inhibition of recombinant human MLK2 (1 to 499 residues) using myelin basic protein as substrate incubated for 40 mins in presence of [gamma-33ATP by radiometric scintillation counting analysis
[13] = target: Serine/threonine-protein kinase 4 (Homo sapiens, UniProt Q13043); experiment: Inhibition of recombinant full-length human MST1 using KKSRGDYMTMQIG as substrate measured after 40 mins in presence of [gamma33P]ATP by radiometric scintillation counting analysis
[14] = target: Serine/threonine-protein kinase 3 (Homo sapiens, UniProt Q13188); experiment: Inhibition of recombinant human MST2 (2 to end residues) using myelin basic protein as substrate measured after 40 mins in presence of [gamma33P]ATP by radiometric scintillation counting analysis
[15] = target: Hepatocyte growth factor receptor (Homo sapiens, UniProt P08581, M1250T); experiment: Inhibition of recombinant human MET A1209G/V1290L/M1268T triple mutant (974 to end residues) using KKKGQEEEYVFIE as substrate incubated for 40 mins in presence of [gamma-33ATP by radiometric scintillation counting analysis
[16] = target: Phosphorylase b kinase gamma catalytic chain, skeletal muscle/heart isoform (Homo sapiens, UniProt Q16816); experiment: Inhibition of recombinant full-length human PhKgamma1 using KKLNRTLSFAEPG as substrate incubated for 40 mins in presence of [gamma33P]ATP by radiometric scintillation counting analysis
[17] = target: Serine/threonine-protein kinase PAK 5 (Homo sapiens, UniProt Q9P286); experiment: Inhibition of recombinant human PAK5 (425 to end residues) using RRRLSFAEPG as substrate measured after 40 mins in presence of [gamma33P]ATP by radiometric scintillation counting analysis
[18] = target: Fibroblast growth factor receptor 1 (Homo sapiens, UniProt P11362, V561M); experiment: Inhibition of recombinant human FGFR1 V561M mutant (456 to 765 residues) using GGEEEEYFELVKK as substrate after 40 mins in presence of [gamma-33ATP] by radiometric scintillation counting analysis
[19] = target: G protein-coupled receptor kinase 5 (Homo sapiens, UniProt P34947); experiment: Inhibition of recombinant full length human GRK5 using casein as substrate after 40 mins in presence of [gamma-33ATP] by radiometric scintillation counting analysis
[20] = target: Inhibitor of nuclear factor kappa-B kinase subunit beta (Homo sapiens, UniProt O14920); experiment: Inhibition of recombinant full length human IKKbeta using peptide substrate after 40 mins by [gamma-33ATP] by radiometric scintillation counting analysis
[21] = target: Tyrosine-protein kinase Lck (Homo sapiens, UniProt P06239); experiment: Inhibition of recombinant full length human LCK using […] as substrate after 40 mins in presence of [gamma-33ATP] by radiometric scintillation counting analysis
[22] = target: Serine/threonine-protein kinase PLK1 (Homo sapiens, UniProt P53350); experiment: Inhibition of recombinant full-length human Plk1 using casein as substrate incubated for 40 mins in presence of [gamma33P]ATP by radiometric scintillation counting analysis
[23] = target: Proto-oncogene tyrosine-protein kinase receptor Ret (Homo sapiens, UniProt P07949); experiment: Inhibition of recombinant human Ret (658 to end residues) using KKKSPGEYVNIEF as substrate incubated for 40 mins in presence of [gamma33P]ATP by radiometric scintillation counting analysis
[24] = target: Macrophage-stimulating protein receptor (Homo sapiens, UniProt Q04912); experiment: Inhibition of recombinant human Ron (983 to end residues) using GGMEDIYFEFMGGKKK as substrate incubated for 40 mins in presence of [gamma33P]ATP by radiometric scintillation counting analysis
[25] = target: Serine/threonine-protein kinase TAO2 (Homo sapiens, UniProt Q9UL54); experiment: Inhibition of recombinant human TAO2 (1 to 320 residues) using myelin basic protein as substrate incubated for 40 mins in presence of [gamma33P]ATP by radiometric scintillation counting analysis

Tyrosine-protein kinase ABL2, sequence (P42684 whole entry): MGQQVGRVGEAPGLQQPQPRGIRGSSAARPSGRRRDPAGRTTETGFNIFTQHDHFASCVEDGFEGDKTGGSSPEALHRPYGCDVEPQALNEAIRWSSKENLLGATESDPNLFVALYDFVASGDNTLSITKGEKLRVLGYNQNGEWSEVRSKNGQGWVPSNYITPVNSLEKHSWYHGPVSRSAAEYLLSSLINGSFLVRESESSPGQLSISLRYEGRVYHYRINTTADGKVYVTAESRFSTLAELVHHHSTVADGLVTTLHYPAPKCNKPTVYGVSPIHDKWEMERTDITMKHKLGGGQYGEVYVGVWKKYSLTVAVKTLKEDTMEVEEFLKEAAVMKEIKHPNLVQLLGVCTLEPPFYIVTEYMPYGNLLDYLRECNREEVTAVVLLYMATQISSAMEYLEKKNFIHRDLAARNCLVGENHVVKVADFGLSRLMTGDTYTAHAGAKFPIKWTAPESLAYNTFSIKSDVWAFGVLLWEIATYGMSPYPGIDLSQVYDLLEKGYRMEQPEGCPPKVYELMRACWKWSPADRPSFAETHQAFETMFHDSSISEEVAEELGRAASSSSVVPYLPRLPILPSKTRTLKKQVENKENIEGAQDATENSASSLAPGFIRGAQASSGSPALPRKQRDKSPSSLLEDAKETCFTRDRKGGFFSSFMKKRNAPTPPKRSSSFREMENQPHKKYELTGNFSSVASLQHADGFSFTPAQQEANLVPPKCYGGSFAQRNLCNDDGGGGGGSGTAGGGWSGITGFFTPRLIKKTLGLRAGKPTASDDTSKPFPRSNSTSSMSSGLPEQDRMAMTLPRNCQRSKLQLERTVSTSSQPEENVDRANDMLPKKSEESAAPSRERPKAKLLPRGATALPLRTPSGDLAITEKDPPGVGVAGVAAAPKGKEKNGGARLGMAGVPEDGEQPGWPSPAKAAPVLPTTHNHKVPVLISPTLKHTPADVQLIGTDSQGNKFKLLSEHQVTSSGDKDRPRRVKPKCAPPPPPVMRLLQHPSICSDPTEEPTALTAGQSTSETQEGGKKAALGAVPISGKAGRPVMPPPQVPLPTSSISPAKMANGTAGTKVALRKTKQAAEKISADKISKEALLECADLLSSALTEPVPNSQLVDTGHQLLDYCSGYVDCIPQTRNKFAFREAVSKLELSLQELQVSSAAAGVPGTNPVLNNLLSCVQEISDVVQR
Mitogen-activated protein kinase kinase kinase 9, sequence (P80192 whole entry, the tested form may be a part): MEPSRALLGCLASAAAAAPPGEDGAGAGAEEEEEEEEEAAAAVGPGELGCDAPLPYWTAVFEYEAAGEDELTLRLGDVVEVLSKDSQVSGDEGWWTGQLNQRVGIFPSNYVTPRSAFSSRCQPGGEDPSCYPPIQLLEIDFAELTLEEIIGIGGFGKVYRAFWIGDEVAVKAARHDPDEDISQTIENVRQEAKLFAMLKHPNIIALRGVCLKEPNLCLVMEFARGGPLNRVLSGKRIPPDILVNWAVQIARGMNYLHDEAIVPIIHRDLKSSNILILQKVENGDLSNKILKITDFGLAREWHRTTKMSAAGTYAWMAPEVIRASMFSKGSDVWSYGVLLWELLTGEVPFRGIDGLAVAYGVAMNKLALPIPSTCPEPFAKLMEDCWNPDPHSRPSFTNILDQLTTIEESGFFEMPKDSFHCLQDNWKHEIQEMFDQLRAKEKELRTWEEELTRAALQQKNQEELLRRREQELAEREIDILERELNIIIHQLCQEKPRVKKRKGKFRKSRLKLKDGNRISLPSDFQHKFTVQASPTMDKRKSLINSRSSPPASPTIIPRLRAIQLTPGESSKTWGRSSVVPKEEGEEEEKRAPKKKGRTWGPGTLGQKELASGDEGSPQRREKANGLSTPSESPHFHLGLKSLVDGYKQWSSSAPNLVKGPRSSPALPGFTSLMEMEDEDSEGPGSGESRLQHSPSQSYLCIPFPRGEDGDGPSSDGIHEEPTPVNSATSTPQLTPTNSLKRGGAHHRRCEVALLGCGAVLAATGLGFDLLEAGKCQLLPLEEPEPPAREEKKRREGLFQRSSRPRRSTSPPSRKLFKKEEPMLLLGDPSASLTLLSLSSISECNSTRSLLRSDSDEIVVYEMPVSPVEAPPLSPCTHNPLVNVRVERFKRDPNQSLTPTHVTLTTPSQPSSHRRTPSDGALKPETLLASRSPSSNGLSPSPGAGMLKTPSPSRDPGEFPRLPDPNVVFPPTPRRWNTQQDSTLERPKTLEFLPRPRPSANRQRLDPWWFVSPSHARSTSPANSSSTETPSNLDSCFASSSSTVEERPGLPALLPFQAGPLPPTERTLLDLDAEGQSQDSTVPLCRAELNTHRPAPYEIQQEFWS
Protein kinase C epsilon type, sequence (Q02156 whole entry): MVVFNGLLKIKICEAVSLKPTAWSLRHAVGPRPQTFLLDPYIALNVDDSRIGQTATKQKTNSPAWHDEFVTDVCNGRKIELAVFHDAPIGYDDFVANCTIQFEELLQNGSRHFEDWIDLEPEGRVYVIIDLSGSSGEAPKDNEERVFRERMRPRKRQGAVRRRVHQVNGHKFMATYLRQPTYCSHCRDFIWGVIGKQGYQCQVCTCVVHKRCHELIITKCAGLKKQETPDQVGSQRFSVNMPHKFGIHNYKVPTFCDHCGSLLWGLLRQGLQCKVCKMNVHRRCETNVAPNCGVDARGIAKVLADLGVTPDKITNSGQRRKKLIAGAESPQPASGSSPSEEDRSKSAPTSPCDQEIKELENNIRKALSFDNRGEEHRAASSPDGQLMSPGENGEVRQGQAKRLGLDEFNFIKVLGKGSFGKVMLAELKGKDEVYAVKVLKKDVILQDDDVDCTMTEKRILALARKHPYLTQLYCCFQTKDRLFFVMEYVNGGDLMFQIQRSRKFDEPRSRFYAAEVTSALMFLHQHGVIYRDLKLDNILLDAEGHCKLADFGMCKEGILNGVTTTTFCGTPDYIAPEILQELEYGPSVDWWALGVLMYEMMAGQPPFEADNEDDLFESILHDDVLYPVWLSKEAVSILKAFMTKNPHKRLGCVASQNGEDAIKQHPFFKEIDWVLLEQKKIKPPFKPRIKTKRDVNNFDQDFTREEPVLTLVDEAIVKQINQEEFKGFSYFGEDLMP
RAC-gamma serine/threonine-protein kinase, sequence (Q9Y243 2-479 S472D limits assumed): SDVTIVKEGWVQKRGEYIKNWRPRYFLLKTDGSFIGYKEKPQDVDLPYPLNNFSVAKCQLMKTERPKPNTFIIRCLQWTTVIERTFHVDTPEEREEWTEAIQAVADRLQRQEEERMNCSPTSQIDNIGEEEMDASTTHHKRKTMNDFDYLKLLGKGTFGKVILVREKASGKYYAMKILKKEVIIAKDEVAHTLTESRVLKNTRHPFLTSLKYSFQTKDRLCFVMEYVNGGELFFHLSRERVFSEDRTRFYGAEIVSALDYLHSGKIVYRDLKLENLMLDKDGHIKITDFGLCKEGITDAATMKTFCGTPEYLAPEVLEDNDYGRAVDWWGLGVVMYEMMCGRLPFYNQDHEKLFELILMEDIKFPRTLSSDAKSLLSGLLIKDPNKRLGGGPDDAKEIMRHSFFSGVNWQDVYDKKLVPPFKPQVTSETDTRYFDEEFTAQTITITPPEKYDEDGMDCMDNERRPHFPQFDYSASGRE
Serine/threonine-protein kinase PLK1, sequence (P53350 whole entry): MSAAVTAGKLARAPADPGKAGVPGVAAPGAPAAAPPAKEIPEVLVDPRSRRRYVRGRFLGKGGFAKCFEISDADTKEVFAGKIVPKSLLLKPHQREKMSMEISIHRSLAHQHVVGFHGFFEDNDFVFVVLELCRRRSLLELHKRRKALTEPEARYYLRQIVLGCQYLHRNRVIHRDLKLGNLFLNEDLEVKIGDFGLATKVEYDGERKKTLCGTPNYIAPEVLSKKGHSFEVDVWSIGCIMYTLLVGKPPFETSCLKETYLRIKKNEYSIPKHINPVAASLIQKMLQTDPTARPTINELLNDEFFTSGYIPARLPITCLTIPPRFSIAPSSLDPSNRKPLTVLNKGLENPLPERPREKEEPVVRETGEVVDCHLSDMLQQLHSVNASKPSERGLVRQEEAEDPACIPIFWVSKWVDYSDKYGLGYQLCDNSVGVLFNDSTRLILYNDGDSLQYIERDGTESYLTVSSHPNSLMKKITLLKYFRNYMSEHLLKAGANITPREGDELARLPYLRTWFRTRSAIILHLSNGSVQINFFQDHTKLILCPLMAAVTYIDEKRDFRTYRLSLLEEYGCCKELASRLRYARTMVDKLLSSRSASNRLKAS
Mitogen-activated protein kinase kinase kinase 10, sequence (Q02779 whole entry, the tested form may be a part): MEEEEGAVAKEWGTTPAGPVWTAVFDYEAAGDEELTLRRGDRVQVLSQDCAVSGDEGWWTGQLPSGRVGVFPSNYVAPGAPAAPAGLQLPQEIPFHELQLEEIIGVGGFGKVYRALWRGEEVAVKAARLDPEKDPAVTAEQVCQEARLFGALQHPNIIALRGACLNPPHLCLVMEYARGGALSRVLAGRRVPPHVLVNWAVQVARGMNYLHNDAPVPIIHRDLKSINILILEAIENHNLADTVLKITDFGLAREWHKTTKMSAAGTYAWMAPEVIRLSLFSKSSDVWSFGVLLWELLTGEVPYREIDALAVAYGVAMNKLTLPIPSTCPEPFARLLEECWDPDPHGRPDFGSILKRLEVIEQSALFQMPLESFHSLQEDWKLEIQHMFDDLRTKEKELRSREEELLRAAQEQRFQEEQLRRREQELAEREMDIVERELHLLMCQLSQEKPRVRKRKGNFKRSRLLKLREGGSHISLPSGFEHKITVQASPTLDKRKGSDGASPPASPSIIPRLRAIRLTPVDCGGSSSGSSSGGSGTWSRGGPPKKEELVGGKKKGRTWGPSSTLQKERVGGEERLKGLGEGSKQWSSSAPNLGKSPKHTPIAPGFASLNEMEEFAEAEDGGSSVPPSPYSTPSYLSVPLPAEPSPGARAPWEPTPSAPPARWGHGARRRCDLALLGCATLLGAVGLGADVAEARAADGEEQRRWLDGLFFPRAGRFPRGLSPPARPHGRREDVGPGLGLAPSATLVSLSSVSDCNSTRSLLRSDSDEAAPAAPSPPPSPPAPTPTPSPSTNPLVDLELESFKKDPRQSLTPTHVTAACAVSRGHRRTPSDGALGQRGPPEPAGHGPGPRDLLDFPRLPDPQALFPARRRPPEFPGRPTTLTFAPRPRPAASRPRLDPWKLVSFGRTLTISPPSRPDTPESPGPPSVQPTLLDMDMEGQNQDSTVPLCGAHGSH

CN(C)c1ccc(C(=O)Nc2cccc(NC(=O)COc3ccc4c(=O)ccoc4c3)c2)cc1
half-life [1]: 8.05 min | IC50 [2]: > 10 µM | IC50 [3]: > 10 µM | IC50 [4]: > 10 µM | IC50 [5]: > 10 µM | IC50 [6]: > 10 µM | IC50 [7]: > 10 µM | IC50 [8]: > 10 µM | IC50 [9]: > 10 µM | IC50 [10]: > 10 µM | IC50 [11]: > 10 µM | IC50 [12]: > 10 µM | IC50 [13]: > 10 µM | IC50 [14]: > 10 µM | IC50 [15]: > 10 µM | IC50 [16]: > 10 µM | IC50 [17]: > 10 µM | IC50 [18]: > 10 µM | IC50 [19]: > 10 µM | IC50 [20]: > 10 µM | IC50 [21]: > 10 µM | IC50 [22]: > 10 µM | IC50 [23]: > 10 µM | IC50 [24]: > 10 µM | IC50 [25]: > 10 µM
